Data on 1 compound can be found in patent publication US20040185500A1, “Use of disease-associated gene” (priority 2001, published 2004).

This assay has as its target T1, human CLCA4-expressing CHO cells (Homo sapiens, UniProt Q14CN2).
T1 construct: expressed in transfected cells
T1 sequence (Q14CN2 22-919): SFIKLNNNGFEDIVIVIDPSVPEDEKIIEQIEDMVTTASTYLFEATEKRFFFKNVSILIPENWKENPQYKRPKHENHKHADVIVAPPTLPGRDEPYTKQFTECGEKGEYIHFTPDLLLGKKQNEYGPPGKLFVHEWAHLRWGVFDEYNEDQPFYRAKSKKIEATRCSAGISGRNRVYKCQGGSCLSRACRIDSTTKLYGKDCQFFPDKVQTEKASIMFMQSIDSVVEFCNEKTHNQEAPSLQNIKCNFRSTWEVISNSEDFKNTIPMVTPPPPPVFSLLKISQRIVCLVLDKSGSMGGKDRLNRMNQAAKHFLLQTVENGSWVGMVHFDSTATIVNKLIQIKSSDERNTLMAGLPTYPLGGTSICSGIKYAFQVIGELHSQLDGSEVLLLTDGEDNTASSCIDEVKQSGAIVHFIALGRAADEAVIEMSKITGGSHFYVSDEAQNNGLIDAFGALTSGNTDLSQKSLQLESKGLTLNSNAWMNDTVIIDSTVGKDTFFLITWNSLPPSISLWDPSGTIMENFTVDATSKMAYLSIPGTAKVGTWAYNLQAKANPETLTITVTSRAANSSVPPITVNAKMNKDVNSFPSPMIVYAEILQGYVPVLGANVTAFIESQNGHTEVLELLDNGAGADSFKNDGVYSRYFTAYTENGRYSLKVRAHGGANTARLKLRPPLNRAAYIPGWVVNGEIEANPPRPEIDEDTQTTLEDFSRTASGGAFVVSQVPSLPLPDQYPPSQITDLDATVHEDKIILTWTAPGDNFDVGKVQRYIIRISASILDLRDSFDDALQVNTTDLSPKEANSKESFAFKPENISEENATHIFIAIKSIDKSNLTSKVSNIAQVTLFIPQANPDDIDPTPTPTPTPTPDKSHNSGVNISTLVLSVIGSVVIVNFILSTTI
The assay is described as follows: Ca2+ dependent Cl- channel activity, FLIPR Membrane Potential Assay, ionomycin stimulation. Particulars: 2 μM ionomycin, compound added, then cells left for 10 min at room temperature, FIG. 3. It counts as cell-based. The procedure: The ClCA4 expression plasmid pcDNA-hCLCA4 described in (2) above was introduced into CHO cells using FuGENE 6 (Roche Diagnostics) according to the manual accompanying it. The cells were subjected to selective culture in 1 mg/ml neomycin (G418) (Gibco BRL)-added MEM-α medium (Gibco BRL) for 10 days, and cells growing in this medium were obtained as CLCA4 expressing CHO cells. These CLCA4-expressing CHO cells and parent strain CHO cells were plated in 96-well black clear bottom plates (Corning) at 4×10^4 cells/well and cultured overnight. Cl^− channel activity was measured using FLIPR Membrane Potential Assay Kit (Molecular Device). A potential sensitive dye (Component A) diluted with 20 mM HEPES-containing HBSS buffer (Component B) was added to the plates at […] and reacted at 37° C. for 30 min. Then, the plates were set in FLIPR (Molecular Device) and, after addition of ionomycin (Wako Purechemical industries) at a final concentration of 2 μM, changes in fluorescence were observed as Cl^− channel activity. In both parent strain CHO cells and human CLCA4-expressing CHO cells, increase in fluorescence intensity was hardly recognized in the absence of stimulation. When stimulated with 2 μM ionomycin, increase in fluorescence intensity was observed only in human CLCA4-expressing CHO cells (FIG. 2). […]

For the compound `O=C(O)c1cccnc1Nc1cccc(C(F)(F)F)c1` [niflumic acid], the “increase in fluorescence intensity caused by stimulation with ionomycin (Cl- channel activity)” value is “inhibited”.
